Data published in ChEMBL document CHEMBL4265884, “Discovery and biological activity of computer-assisted drug designed Akt pathway inhibitors” (Bioorg Med Chem Lett, 2018).
pIC50: −log10 of the molar value. Active and inactive are the calls of the source. No cut-off for these calls is given here.

How the values were obtained:
[1] = biological target: RAC-alpha serine/threonine-protein kinase (Homo sapiens) (UniProt P31749); test: Inhibition of AKT phosphorylation at Ser473 in […] WBras1 cells at 25 uM after 4 hrs by Western blot analysis; assay type: cell-based
RAC-alpha serine/threonine-protein kinase (Homo sapiens), sequence (P31749 whole entry): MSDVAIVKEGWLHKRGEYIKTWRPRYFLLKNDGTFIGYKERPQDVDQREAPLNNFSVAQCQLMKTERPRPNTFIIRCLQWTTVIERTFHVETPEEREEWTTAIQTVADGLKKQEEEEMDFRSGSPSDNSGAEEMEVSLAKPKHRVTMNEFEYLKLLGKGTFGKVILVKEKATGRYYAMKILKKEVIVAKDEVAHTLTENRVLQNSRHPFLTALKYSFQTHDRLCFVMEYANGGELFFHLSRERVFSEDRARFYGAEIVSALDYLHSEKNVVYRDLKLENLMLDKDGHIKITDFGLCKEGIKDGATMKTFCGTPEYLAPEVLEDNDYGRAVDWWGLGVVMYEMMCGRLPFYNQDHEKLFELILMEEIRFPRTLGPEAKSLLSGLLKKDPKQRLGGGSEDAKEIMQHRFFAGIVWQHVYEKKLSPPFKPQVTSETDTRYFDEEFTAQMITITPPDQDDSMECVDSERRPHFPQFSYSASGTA

[2] = biological target: RAC-alpha serine/threonine-protein kinase (Homo sapiens) (UniProt P31749); test: Inhibition of AKT phosphorylation at Ser473 in human NCI-H2009 cells at 25 uM after 24 hrs by Western blot analysis; assay type: cell-based
[3] = biological target: RAC-alpha serine/threonine-protein kinase (Homo sapiens) (UniProt P31749); test: Inhibition of AKT phosphorylation at Ser473 in […] WBras1 cells at 25 uM after 24 hrs by Western blot analysis; assay type: cell-based
NCI-H2009 [4] = test: Growth inhibition of human NCI-H2009 cells assessed as reduction in cell number at 2.5 uM after 2 to 4 days by flow cytometric analysis; assay type: functional, cell-based
[5] = biological target: RAC-alpha serine/threonine-protein kinase (Homo sapiens) (UniProt P31749); test: Inhibition of AKT phosphorylation at Ser473 in […] WBras1 cells at 2.5 uM after 4 hrs by Western blot analysis; assay type: cell-based
[6] = biological target: RAC-alpha serine/threonine-protein kinase (Homo sapiens) (UniProt P31749); test: Inhibition of AKT phosphorylation at Ser473 in human NCI-H2009 cells up to 10 uM after 4 hrs by Western blot analysis; assay type: cell-based
[7] = biological target: RAC-alpha serine/threonine-protein kinase (Homo sapiens) (UniProt P31749); test: Inhibition of AKT phosphorylation at Ser473 in human NCI-H2009 cells at 2.5 uM after 24 to 48 hrs by Western blot analysis; assay type: cell-based
[8] = biological target: RAC-alpha serine/threonine-protein kinase (Homo sapiens) (UniProt P31749); test: Inhibition of AKT phosphorylation at Ser473 in […] WBras1 cells at 2.5 uM after 24 hrs by Western blot analysis; assay type: cell-based
NCI-H2009 [9] = test: Growth inhibition of human NCI-H2009 cells assessed as reduction in cell number at 1.25 uM after 2 to 4 days by flow cytometric analysis; assay type: functional, cell-based
[10] = biological target: RAC-alpha serine/threonine-protein kinase (Homo sapiens) (UniProt P31749); test: Inhibition of AKT phosphorylation at Ser473 in human NCI-H2009 cells at 1.25 uM after 24 to 48 hrs by Western blot analysis; assay type: cell-based
NCI-H2009 [11] = test: Growth inhibition of human NCI-H2009 cells assessed as reduction in cell number after 2 days by flow cytometric analysis; assay type: functional, cell-based
[12] = biological target: RAC-alpha serine/threonine-protein kinase (Homo sapiens) (UniProt P31749); test: Inhibition of AKT phosphorylation at Ser473 in […] WBras1 cells at 1.25 uM after 4 hrs by Western blot analysis; assay type: cell-based
[13] = biological target: RAC-alpha serine/threonine-protein kinase (Homo sapiens) (UniProt P31749); test: Inhibition of AKT phosphorylation at Ser473 in […] WBras1 cells at 1.25 uM after 24 hrs by Western blot analysis; assay type: cell-based
[14] = biological target: RAC-alpha serine/threonine-protein kinase (Homo sapiens) (UniProt P31749); test: Inhibition of AKT phosphorylation at Ser473 in human NCI-H2009 cells at 2.5 uM after 1 to 4 hrs by Western blot analysis; assay type: cell-based

inhibition [1]	inhibition [2]	inhibition [3]	inhibition [5]	inhibition [6]	inhibition [7]	inhibition [8]	inhibition [10]	pIC50 (NCI-H2009 [11]; NCI-H2009, 48 h)	inhibition [12]	inhibition [13]	inhibition [14]	SMILES	growth inhibition (GI) (NCI-H2009 [4])	growth inhibition (GI) (NCI-H2009 [9])	growth inhibition (GI) (NCI-H2009 [11])
Active	inactive	Active	–	–	–	–	–	–	–	–	–	C=CCCCCCCCCC1OCCN1CC (stereo unspecified)	inactive	–	–
–	–	–	Active	inactive	inactive	Active	–	–	–	–	–	CCCCCCCCCCCCSC(=NC)NC	Active	–	–
–	–	–	–	–	–	–	Active	6.70	Active	Active	Active	CCCCCCCCCCCCSC1=NCCCN1	–	Active	Dose-dependent effect
